Experimental data taken from patent US11426375B2, “Substituted bisphenyl butanoic ester derivatives as NEP inhibitors” (NOVARTIS AG, priority 2019, dated 2022).

Legend:
[1] = format: physicochemical; details: pH 2
Method: It was stable at pH of 4.7 and pH of 6.8 up to 70° C. for 3 days.

[2] = parameters: species or system Cynomolgus Monkeys; details: cynomolgus monkey, in vivo, po, 10 mg/kg
Method: A cross-over study design consisting of two groups with two animals per group was conducted to examine the pharmacokinetic properties of compound I-1 of the present disclosure.
Compound I-1 and AHU377 were administered to each group as follows: compound I-1 on Day 0 followed by AHU377 on Day 2 (Group 1), AHU377 on Day 0 followed by compound I-1 on Day 2 (Group 2). Each animal received a single 10 mg/kg (5 ml/kg) oral gavage dose of the specified study drug on the specified day. The animals were 2.5 to 3.5 years of age and weighed between 3.1 and 4.3 kg at the beginning of the study. Both compounds were formulated in 0.5% methylcellulose (400 cp) and 0.1% Tween 80 (w,v) in water. Blood samples for pharmacokinetics analysis were collected at t=0, 0.25, 0.5, 1, 2, 4, 8, 24 and 48 hours post dose on Day 0 and Day 2. Plasma was prepared by collecting whole blood samples into tubes containing K2EDTA and NaF (final concentrations: ˜1 mg/mL (K2EDTA) and ˜2 mg/mL (NaF)). These tubes were kept in an ice bath prior to centrifugation at approximately 2,000 rcf for 10 minutes at approximately 5° C. To each resultant plasma sample (target volume 200 μL), 4 μL of 50% phosphoric acid (v/v) was added.
[^13C4]-LBQ657 was added as an internal standard to the pharmacokinetic (PK) samples and calibration standards prior to analysis by LC-MS/MS. The LC-MS system consisted of an API6500+ mass spectrometer coupled to an Agilent 1290 HPLC system equipped with a CTC Pal autosampler. The mass spectrometer was operated in the positive ion mode.

[3] = system: DSS (Dahl Salt Sensitive) rats; assay: In vivo efficacy study on blood pressure in DSS rats (telemetry; systolic and diastolic pressure); details: for Systolic blood pressure, mean / Diastolic blood pressure, Mean: Compound I-1 50 mg/kg; for Systolic blood pressure, mean: alone or combined, QD PO
From the text: An in vivo study ascertains the effects on blood pressure in DSS (Dahl Salt Sensitive) rats. The DSS hypertensive rat model is a model of hypertension that is sensitive to dietary salt (NaCl), see for example Rapp (1982) Hypertension 4:753-763 and Hegde et al. BMC Pharmacology 2011, 11 (Suppl 1):P33. Under pentobarbital sodium anesthesia, a DSI (Data Sciences International, St. Paul, Minn.) telemetric probe is implanted. The transducer is inserted into abdominal aorta, and the transmitter is implanted into abdominal cavity. During postoperative recovery period, close observation is performed. Analgesics (Buprenorphine, 0.1-0.5 mg/kg, once per day for 1 day) and preventive antibiotics (Cephradine, 10˜15 mg/kg, ip., once per day for 3 days) are administered on a daily basis. Before the treatment period, all animals are fed with 8% high salt food for about 2 weeks. Test compound is formulated in 0.5% HPC and administered by oral gavage. Five groups of animals are treated as follows: 1. Vehicle, 0.5% HPC, QD, PO, N=5 2. Valsartan, 30 mg/kg, QD, PO, N=5 3. Compound I-1, 50 mg/kg, QD, PO, N=6 4. Compound I-1, 15 mg/kg+Valsartan, 30 mg/kg, QD, PO, N=5 5. Compound I-1, 50 mg/kg+Valsartan, 30 mg/kg, QD, PO, N=5 N is the number of animals. The mean arterial pressure, systolic pressure, diastolic pressure and heart rate after administration for each animal are measured. Interim results obtained before full study completion are shown in Tables 18 and 19 (full cohort of animals beyond day 7 were reduced due to some loss). Mean measurements of the systolic (Table 18) and diastolic (Table 19) blood pressures, for the baseline day prior to first treatment and for treatment days 1 and 7 only, in each treatment group, are shown. Measurements obtained every other hour only are shown.

CCOC(=O)[C@H](C)C[C@@H](Cc1ccc(-c2ccccc2)cc1)NC(=O)CCC(=O)N[C@@H](CC(C)C)C(=O)O [Compound I-1, (4-(((2S,4R)-1-([1,1′-biphenyl]-4-yl)-5-ethoxy-4-methyl-5-oxopentan-2-yl)amino)-4-oxobutanoyl)-L-leucine]
degradation in solution ([1]; 1 day): 18.27% | solution stability under acidic conditions [1]: unstable | compound I-1 concentrations in plasma [2]: below the lower limit of quantitation | tolerability [2]: well tolerated | relative bioavailability compared to AHU377 based on AUC values ([2]; male): 72% | relative bioavailability compared to AHU377 based on Cmax values ([2]; male): 30% | Systolic blood pressure, mean ([3]; Baseline day prior to first treatment, Hour 1, groups Valsartan 30 mg/kg): 163.63 | Systolic blood pressure, mean ([3]; Baseline day prior to first treatment, Hour 3, groups Valsartan 30 mg/kg): 159.24 | Systolic blood pressure, mean ([3]; Baseline day prior to first treatment, Hour 5, groups Valsartan 30 mg/kg): 155.66 | Systolic blood pressure, mean ([3]; Baseline day prior to first treatment, Hour 7, groups Valsartan 30 mg/kg): 154.92 | Systolic blood pressure, mean ([3]; Baseline day prior to first treatment, Hour 9, groups Valsartan 30 mg/kg): 157.92 | Systolic blood pressure, mean ([3]; Baseline day prior to first treatment, Hour 11, groups Valsartan 30 mg/kg): 162.87 | Systolic blood pressure, mean ([3]; Baseline day prior to first treatment, Hour 13, groups Valsartan 30 mg/kg): 167.91 | Systolic blood pressure, mean ([3]; Baseline day prior to first treatment, Hour 15, groups Valsartan 30 mg/kg): 167.33 | Systolic blood pressure, mean ([3]; Baseline day prior to first treatment, Hour 17, groups Valsartan 30 mg/kg): 167.09 | Systolic blood pressure, mean ([3]; Baseline day prior to first treatment, Hour 19, groups Valsartan 30 mg/kg): 169.48 | Systolic blood pressure, mean ([3]; Baseline day prior to first treatment, Hour 21, groups Valsartan 30 mg/kg): 169.41 | Systolic blood pressure, mean ([3]; Baseline day prior to first treatment, Hour 23, groups Valsartan 30 mg/kg): 161.71 | Diastolic blood pressure, Mean ([3]; Baseline day, Hour 1): 111.95 | Diastolic blood pressure, Mean ([3]; Baseline day, Hour 3): 107.76 | Diastolic blood pressure, Mean ([3]; Baseline day, Hour 5): 104.17 | Diastolic blood pressure, Mean ([3]; Baseline day, Hour 7): 102.18 | Diastolic blood pressure, Mean ([3]; Baseline day, Hour 9): 105.63 | Diastolic blood pressure, Mean ([3]; Baseline day, Hour 11): 111.89 | Diastolic blood pressure, Mean ([3]; Baseline day, Hour 13): 116.86 | Diastolic blood pressure, Mean ([3]; Baseline day, Hour 15): 115.85 | Diastolic blood pressure, Mean ([3]; Baseline day, Hour 17): 116.42 | Diastolic blood pressure, Mean ([3]; Baseline day, Hour 19): 117.36 | Diastolic blood pressure, Mean ([3]; Baseline day, Hour 21): 116.95 | Diastolic blood pressure, Mean ([3]; Baseline day, Hour 23): 109.93 | Diastolic blood pressure, Mean ([3]; Dosing day 1, Hour 1): 115.05 | Diastolic blood pressure, Mean ([3]; Dosing day 1, Hour 3): 106.99 | Diastolic blood pressure, Mean ([3]; Dosing day 1, Hour 5): 104.66 | Diastolic blood pressure, Mean ([3]; Dosing day 1, Hour 7): 106.82 | Diastolic blood pressure, Mean ([3]; Dosing day 1, Hour 9): 108.88 | Diastolic blood pressure, Mean ([3]; Dosing day 1, Hour 11): 114.90 | Diastolic blood pressure, Mean ([3]; Dosing day 1, Hour 13): 116.00 | Diastolic blood pressure, Mean ([3]; Dosing day 1, Hour 15): 117.42 | Diastolic blood pressure, Mean ([3]; Dosing day 1, Hour 17): 118.42 | Diastolic blood pressure, Mean ([3]; Dosing day 1, Hour 19): 122.21 | Diastolic blood pressure, Mean ([3]; Dosing day 1, Hour 21): 115.68 | Diastolic blood pressure, Mean ([3]; Dosing day 1, Hour 23): 111.09 | Diastolic blood pressure, Mean ([3]; Dosing day 7, Hour 1): 118.61 | Diastolic blood pressure, Mean ([3]; Dosing day 7, Hour 3): 109.11 | Diastolic blood pressure, Mean ([3]; Dosing day 7, Hour 5): 108.96 | Diastolic blood pressure, Mean ([3]; Dosing day 7, Hour 7): 114.22 | Diastolic blood pressure, Mean ([3]; Dosing day 7, Hour 9): 126.44 | Diastolic blood pressure, Mean ([3]; Dosing day 7, Hour 11): 129.02 | Diastolic blood pressure, Mean ([3]; Dosing day 7, Hour 13): 131.34 | Diastolic blood pressure, Mean ([3]; Dosing day 7, Hour 15): 126.20 | Diastolic blood pressure, Mean ([3]; Dosing day 7, Hour 17): 127.80 | Diastolic blood pressure, Mean ([3]; Dosing day 7, Hour 19): 124.88 | Diastolic blood pressure, Mean ([3]; Dosing day 7, Hour 21): 116.93 | Diastolic blood pressure, Mean ([3]; Dosing day 7, Hour 23): 120.18 | effect on blood pressure ([3]; DSS rats, as compared to animals treated with vehicle alone, interim results): trend for lower blood pressure | Systolic blood pressure, mean ([3]; Dosing day 1, Hour 1, Valsartan 30 mg/kg): 164.94 | Systolic blood pressure, mean ([3]; Dosing day 1, Hour 3, Valsartan 30 mg/kg): 152.46 | Systolic blood pressure, mean ([3]; Dosing day 1, Hour 5, Valsartan 30 mg/kg): 155.79 | Systolic blood pressure, mean ([3]; Dosing day 1, Hour 7, Valsartan 30 mg/kg): 159.33 | Systolic blood pressure, mean ([3]; Dosing day 1, Hour 9, Valsartan 30 mg/kg): 166.16 | Systolic blood pressure, mean ([3]; Dosing day 1, Hour 11, Valsartan 30 mg/kg): 168.46 | Systolic blood pressure, mean ([3]; Dosing day 1, Hour 13, Valsartan 30 mg/kg): 169.35 | Systolic blood pressure, mean ([3]; Dosing day 1, Hour 15, Valsartan 30 mg/kg): 169.78 | Systolic blood pressure, mean ([3]; Dosing day 1, Hour 17, Valsartan 30 mg/kg): 174.28 | Systolic blood pressure, mean ([3]; Dosing day 1, Hour 19, Valsartan 30 mg/kg): 166.11 | Systolic blood pressure, mean ([3]; Dosing day 1, Hour 21, Valsartan 30 mg/kg): 162.24 | Systolic blood pressure, mean ([3]; Dosing day 1, Hour 23, Valsartan 30 mg/kg): 158.31 | Systolic blood pressure, mean ([3]; Dosing day 7, Hour 1, Valsartan 30 mg/kg): 167.78 | Systolic blood pressure, mean ([3]; Dosing day 7, Hour 3, Valsartan 30 mg/kg): 158.75 | Systolic blood pressure, mean ([3]; Dosing day 7, Hour 5, Valsartan 30 mg/kg): 156.95 | Systolic blood pressure, mean ([3]; Dosing day 7, Hour 7, Valsartan 30 mg/kg): 165.23 | Systolic blood pressure, mean ([3]; Dosing day 7, Hour 9, Valsartan 30 mg/kg): 176.77 | Systolic blood pressure, mean ([3]; Dosing day 7, Hour 11, Valsartan 30 mg/kg): 182.56 | Systolic blood pressure, mean ([3]; Dosing day 7, Hour 13, Valsartan 30 mg/kg): 182.29 | Systolic blood pressure, mean ([3]; Dosing day 7, Hour 15, Valsartan 30 mg/kg): 175.64 | Systolic blood pressure, mean ([3]; Dosing day 7, Hour 17, Valsartan 30 mg/kg): 179.39 | Systolic blood pressure, mean ([3]; Dosing day 7, Hour 19, Valsartan 30 mg/kg): 175.46 | Systolic blood pressure, mean ([3]; Dosing day 7, Hour 21, Valsartan 30 mg/kg): 165.83 | Systolic blood pressure, mean ([3]; Dosing day 7, Hour 23, Valsartan 30 mg/kg): 170.13
